According to publication PMC5218591 (Bioorganic & medicinal chemistry, 2016):

Target: GPR88 (Homo sapiens, UniProt Q9GZN0)
Settings: for fold less potent than 3: versus 3; for agonist activity at GPR88 (in words): purified compounds, Lance cAMP assay

Sequence of GPR88 (Q9GZN0 whole entry, species assumed): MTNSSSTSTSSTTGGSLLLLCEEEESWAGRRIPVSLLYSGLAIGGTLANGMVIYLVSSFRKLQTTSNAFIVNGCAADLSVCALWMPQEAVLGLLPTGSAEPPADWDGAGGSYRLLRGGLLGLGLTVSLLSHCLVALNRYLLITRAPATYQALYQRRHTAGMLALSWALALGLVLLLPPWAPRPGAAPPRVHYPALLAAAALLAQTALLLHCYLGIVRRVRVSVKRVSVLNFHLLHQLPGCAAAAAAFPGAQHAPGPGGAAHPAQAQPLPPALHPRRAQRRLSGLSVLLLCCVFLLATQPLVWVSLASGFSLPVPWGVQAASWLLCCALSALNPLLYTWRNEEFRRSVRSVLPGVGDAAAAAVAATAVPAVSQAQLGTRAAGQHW

## CCCC(C)COc1ccc([C@@H](NC(=O)[C@@H](C)c2ccccc2)C(=O)OC)cc1 (stereo partly drawn) [Compound 11a, Methyl (2R)-2-[4-(2-methylpentyloxy)phenyl]-2-[(S)-2-phenylpropanamido]acetate]
  fold less potent than 3: approximately 2.5 fold

## CCCC(C)COc1ccc([C@H](CO)NC(=O)Cc2ccccc2)cc1 (stereo partly drawn) [Compound 12a, N-{(1R)-2-Hydroxy-1-[4-(2-methylpentyloxy)phenyl]ethyl}-2-phenylacetamide]
  fold less potent than 3: approximately 2 fold

## CCCC(C)COc1ccc([C@@H](NC(=O)[C@@H](CC)c2ccccc2)C(=O)OC)cc1 (stereo partly drawn) [Compound 13aw, Methyl (2R)-2-[4-(2-methylpentyloxy)phenyl]-2-[(S)-2-phenylbutanamido]acetate]
  agonist activity at GPR88 (in words): equipotent with 11a
Versus 13a
  fold more potent than 13a: 4.5 fold

## CCCC(C)COc1ccc([C@@H](NC(=O)Cc2ccccc2)C(=O)OC)cc1 (stereo partly drawn) [Compound 13a, Methyl (2R)-2-[4-(2-methylpentyloxy)phenyl]-2-(2-phenylacetamido)acetate]
Versus 11a
  fold less potent than 11a: 5 fold

## CCCC(C)COc1ccc([C@@H](NC(=O)[C@@H](C)c2ccccc2)C(=O)O)cc1 (stereo partly drawn) [Compound 11b, (2R)-2-[4-(2-Methylpentyloxy)phenyl]-2-[(S)-2-phenylpropanamido]acetic acid]
  agonist activity at GPR88 (in words): completely inactive

## CCCC(C)COc1ccc([C@@H](NC(=O)[C@H](C)c2ccccc2)C(=O)OC)cc1 (some centres unmarked) [Compound 13az]
Library screen at 1 μM final, crude compounds, 11a = 100%, Figure 2
  agonist activity as percentage of TR-FRET signal of the control compound 11a: less potent than the (S)-isomer

## CCCC(C)COc1ccc([C@@H](NC(=O)C(C)C2CCCCC2)C(=O)OC)cc1 (stereo partly drawn) [Compound 12d, Methyl (2R)-2-[4-(2-methylpentyloxy)phenyl]-2-[(R,S)-2-cyclohexylpropanamido]-acetate]
  agonist activity at GPR88 (in words): completely inactive
